# According to patent publication US20180282818A1, “Therapeutic Cancer Treatments Based on TP53 Gene Mutations” (The Wistar Institute of Anatomy and Biology, priority 2015, published 2018):
# Experiments:
# Format in all cases: cell-based
# S47 cells = assay: Resazurin cytotoxicity screening, S47 cells; conditions: for EC50: S47 cells, 72 hours, resazurin fluorescence, normalized to doxorubicin and DMSO; for Fold-sensitive, S47 / Fold-resistant, S47: S47 versus WT EC50
# Method: (§1) The screening methods were performed as follows. S47 and wild type cells were plated at a density of 750 cells/well in a total volume of 50 μL in 384 well Greiner microplates. The cells were allowed to attach overnight at 37° C. and then dosed with 50 nL of compound serially diluted in DMSO. Following compound addition, the assay plates were incubated at 37° C. for 72 hours, followed by the addition of 5 μL of […] Resazurin. The plates were incubated at 37° C. for 8-10 hours and then fluorescence was measured using a Perkin Elmer Envision plate reader (excitation at 530-560 nm, emission at 590 nm). Raw fluorescent counts were uploaded into Spotfire and normalized to doxorubicin (positive control) and DMSO (negative control) treated wells (n=12/plate). EC50 values were calculated by applying a logistic regression curve fit and expressed as μM compound that was effective in killing 50% of the cell population at 72 hours.
# wild type cells = assay: Resazurin cytotoxicity screening, wild type cells; conditions: 72 hours, resazurin fluorescence, normalized to doxorubicin and DMSO, read-out: WT EC50
# Method: as §1
# S47 tumor cells = assay: Sensitivity of E1A/Ras-transformed S47 tumor cells compared to WT cells; conditions: S47 and WT cells expressing E1A/Ras
# Method: S47 and WT cells expressing E1A/Ras were analyzed.
# A tumorigenic (transformed) version of WT and S47 cells may be created as follows. WT and S47 cells were transfected with two oncogenes (E1A and Ras).
Compound,EC50 (S47 cells),"Fold-sensitive, S47 (S47 cells)",EC50 (wild type cells),"Fold-resistant, S47 (S47 cells)",Sensitivity of S47 tumor cells compared to WT cells (S47 tumor cells)
"CS(=O)(=O)N1CCN(Cc2cc3nc(-c4cccc5[nH]ncc45)nc(N4CCOCC4)c3s2)CC1 [GDC0941, 2-(1H-indazol-4-yl)-6-((4-(methylsulfonyl)piperazin-1-yl)methyl)-4-morpholinothieno[3,2-d]pyrimidine]",12 nM,2.33,28 nM,,
"COc1ncc(-c2ccc3nccc(-c4ccnnc4)c3c2)cc1NS(=O)(=O)c1ccc(F)cc1F [GSK2126458, 2,4-difluoro-N-(2-methoxy-5-(4-(pyridazin-4-yl)quinolin-6-yl)pyridin-3-yl)benzenesulfonamide]",0.46 nM,3.26,1.5 nM,,
COc1cccc2c1C(=O)c1c(O)c3c(c(O)c1C2=O)C[C@@](O)(C(=O)CO)C[C@@H]3O[C@H]1C[C@H](N)[C@H](O)[C@H](C)O1 [Doxorubicin],292 nM,,146 nM,2,
C[C@@H]1COCCN1c1cc(C2([S@](C)(=N)=O)CC2)nc(-c2cc[nH]c3nccc2-3)n1 [AZD6738],> 10000 nM,,377 nM,26,
Cc1[nH]c2ccccc2c1CCNCc1ccc(/C=C/C(=O)NO)cc1 [LBH589],6.6 nM,,3.2 nM,2,
"COc1cccc2cc(-c3nc([C@H]4CC[C@H](C(=O)O)CC4)n4ncnc(N)c34)[nH]c12 [OSI027, trans-4-[4-amino-5-(7-methoxy-1H-indol-2-yl)imidazo[5,1-f][1,2,4]triazin-7-yl]cyclohexanecarboxylic acid]",173 nM,4.3,745 nM,,more sensitive
"N.N.[Cl][Pt][Cl] [Cisplatin, (SP-4-2)-diamminedichloroplatinum(II)]",790 nM,,348 nM,2.3,more sensitive
"CC(C)n1nc(-c2ccc3oc(N)nc3c2)c2c(N)ncnc21 [INK128, 5-(4-amino-1-isopropyl-1H-pyrazolo[3 ,4-d]pyrimidin-3-yl)benzo[d]oxazol-2-amine]",9.5 nM,1.5,14.5 nM,,
CC[C@@]1(O)C(=O)OCc2c1cc1n(c2=O)Cc2cc3ccccc3nc2-1 [camptothecin],,,,,less sensitive
Cc1cn(-c2cc(NC(=O)c3ccc(C)c(Nc4nccc(-c5cccnc5)n4)c3)cc(C(F)(F)F)c2)cn1 [AMN107],> 10000 nM,,353 nM,28,
